Publication PMC3742645, “The Effect of Polyhydroxylated Alkaloids on Maltase-Glucoamylase” (PLoS ONE, 2013)

Target: T1, ntMGAM (purchased as maltase-glucoamylase from rice, EC 3.2.1.20, Sigma G9259)
T1 construct: gene Os06g0675700; commercial native rice alpha-glucosidase; no human protein source or expression described
Assay: NMR transverse relaxation (CPMG) titration
Format: binding
Settings: pH 6.8, 310 K, 10 mM sodium phosphate, 10% D2O, protein 18 μM; signal H-9; unit printed as M^-1 under a Kd heading
From the text: NMR transverse relaxation (CPMG) titration on ntMGAM (purchased as maltase-glucoamylase from rice, EC 3.2.1.20, Sigma G9259)

K d(M^-1): (5.4±0.1)×10^−5 M^−1
Compound: C[C@H]1O[C@H](O[C@H]2[C@H](O)[C@@H](O)[C@@H](O[C@H]3[C@H](O)[C@@H](O)C(O)O[C@@H]3CO)O[C@@H]2CO)[C@H](O)[C@@H](O)[C@@H]1N[C@H]1C=C(CO)[C@@H](O)[C@H](O)[C@H]1O (stereo partly shown) [acarbose]
